Test results: the NIST ThermoML archive (doi:10.1021/je060139a)

How the values were obtained:
[1] = refractive index (Na D-line) (dimensionless); xn = mol fraction of the nth substance listed; details: 100.5 kPa, Liquid, Standard Abbe refractometry
[2] = xn = mol fraction of the nth substance listed; details: Wilhelmy plate method

CC(=O)OCc1ccccc1 [benzyl ethanoate] + CCO
Details | refractive index, 288.15 K | refractive index, 298.18 K | refractive index, 308.15 K | refractive index, 318.15 K | surface tension liquid-gas, 288.15 K [mN/m] | surface tension liquid-gas, 298.18 K [mN/m] | surface tension liquid-gas, 308.15 K [mN/m] | surface tension liquid-gas, 318.15 K [mN/m]
[1], x1 = 0.05 | 1.38022 | 1.37602 | 1.37164 | 1.36738 | – | – | – | –
[1], x1 = 0.1 | 1.39462 | 1.39033 | 1.38588 | 1.38161 | – | – | – | –
[1], x1 = 0.15 | 1.40725 | 1.40288 | 1.39843 | 1.39409 | – | – | – | –
[1], x1 = 0.2 | 1.41836 | 1.41395 | 1.40945 | 1.40506 | – | – | – | –
[1], x1 = 0.25 | 1.42813 | 1.42372 | 1.41929 | 1.41487 | – | – | – | –
[1], x1 = 0.3 | 1.43696 | 1.43255 | 1.4281 | 1.42364 | – | – | – | –
[1], x1 = 0.35 | 1.44489 | 1.44048 | 1.43604 | 1.43155 | – | – | – | –
[1], x1 = 0.4 | 1.45211 | 1.44767 | 1.44323 | 1.4387 | – | – | – | –
[1], x1 = 0.45 | 1.45868 | 1.4542 | 1.44974 | 1.44517 | – | – | – | –
[1], x1 = 0.5 | 1.4647 | 1.46016 | 1.45571 | 1.4511 | – | – | – | –
[1], x1 = 0.55 | 1.4702 | 1.46565 | 1.46119 | 1.45653 | – | – | – | –
[1], x1 = 0.6 | 1.47521 | 1.47065 | 1.46619 | 1.46154 | – | – | – | –
[1], x1 = 0.65 | 1.47987 | 1.47531 | 1.47082 | 1.46613 | – | – | – | –
[1], x1 = 0.7 | 1.48418 | 1.47958 | 1.47508 | 1.47036 | – | – | – | –
[1], x1 = 0.75 | 1.48819 | 1.48358 | 1.47907 | 1.47434 | – | – | – | –
[1], x1 = 0.8 | 1.49191 | 1.48729 | 1.48279 | 1.47804 | – | – | – | –
[1], x1 = 0.85 | 1.49539 | 1.49076 | 1.48626 | 1.48148 | – | – | – | –
[1], x1 = 0.9 | 1.49871 | 1.49408 | 1.48959 | 1.48481 | – | – | – | –
[1], x1 = 0.95 | 1.5017 | 1.49709 | 1.49262 | 1.48783 | – | – | – | –
[1], x1 = 1 | 1.50439 | 1.49982 | 1.49539 | 1.49064 | – | – | – | –
[2], x1 = 0.05 | – | – | – | – | 24 | 23.2 | 22.3 | 21.3
[2], x1 = 0.1 | – | – | – | – | 24.8 | 23.9 | 23 | 22
[2], x1 = 0.15 | – | – | – | – | 25.5 | 24.57 | 23.63 | 22.6
[2], x1 = 0.2 | – | – | – | – | 26.1 | 25.18 | 24.23 | 23.2
[2], x1 = 0.25 | – | – | – | – | 26.7 | 25.77 | 24.83 | 23.8
[2], x1 = 0.3 | – | – | – | – | 27.3 | 26.36 | 25.43 | 24.4
[2], x1 = 0.35 | – | – | – | – | 28 | 27.02 | 26.07 | 25.03
[2], x1 = 0.4 | – | – | – | – | 28.7 | 27.69 | 26.72 | 25.66
[2], x1 = 0.45 | – | – | – | – | 29.4 | 28.37 | 27.38 | 26.3
[2], x1 = 0.5 | – | – | – | – | 30.1 | 29.02 | 28.03 | 26.93
[2], x1 = 0.55 | – | – | – | – | 30.8 | 29.69 | 28.67 | 27.56
[2], x1 = 0.6 | – | – | – | – | 31.5 | 30.36 | 29.3 | 28.17
[2], x1 = 0.65 | – | – | – | – | 32.2 | 31.02 | 29.94 | 28.78
[2], x1 = 0.7 | – | – | – | – | 32.9 | 31.68 | 30.58 | 29.41
[2], x1 = 0.75 | – | – | – | – | 33.62 | 32.37 | 31.24 | 30.06
[2], x1 = 0.8 | – | – | – | – | 34.4 | 33.08 | 31.93 | 30.75
[2], x1 = 0.85 | – | – | – | – | 35.2 | 33.92 | 32.8 | 31.6
[2], x1 = 0.9 | – | – | – | – | 36.1 | 34.8 | 33.7 | 32.45
[2], x1 = 0.95 | – | – | – | – | 36.9 | 35.6 | 34.5 | 33.3
[2], x1 = 1 | – | – | – | – | 37.7 | 36.4 | 35.3 | 34.1

CCOC(=O)CC(C)C [ethyl 3-methylbutanoate] + CCO
Details | refractive index, [1] | surface tension liquid-gas, [2] [mN/m]
288.15 K, x1 = 0.05 | 1.3677 | 23.14
288.15 K, x1 = 0.1 | 1.37142 | 23.26
288.15 K, x1 = 0.15 | 1.37464 | 23.37
288.15 K, x1 = 0.2 | 1.37745 | 23.46
288.15 K, x1 = 0.25 | 1.37993 | 23.55
288.15 K, x1 = 0.3 | 1.38213 | 23.62
288.15 K, x1 = 0.35 | 1.3841 | 23.69
288.15 K, x1 = 0.4 | 1.38587 | 23.76
288.15 K, x1 = 0.45 | 1.38748 | 23.82
288.15 K, x1 = 0.5 | 1.38894 | 23.88
288.15 K, x1 = 0.55 | 1.39028 | 23.93
288.15 K, x1 = 0.6 | 1.39151 | 23.99
288.15 K, x1 = 0.65 | 1.39264 | 24.04
288.15 K, x1 = 0.7 | 1.39369 | 24.09
288.15 K, x1 = 0.75 | 1.39467 | 24.15
288.15 K, x1 = 0.8 | 1.39559 | 24.2
288.15 K, x1 = 0.85 | 1.39646 | 24.25
288.15 K, x1 = 0.9 | 1.39729 | 24.3
288.15 K, x1 = 0.95 | 1.39807 | 24.35
288.15 K, x1 = 1 | 1.3988 | 24.4
298.18 K, x1 = 0.05 | 1.36363 | 22.4
298.18 K, x1 = 0.1 | 1.36724 | 22.5
298.18 K, x1 = 0.15 | 1.37038 | 22.58
298.18 K, x1 = 0.2 | 1.37312 | 22.66
298.18 K, x1 = 0.25 | 1.37554 | 22.73
298.18 K, x1 = 0.3 | 1.37769 | 22.79
298.18 K, x1 = 0.35 | 1.37961 | 22.85
298.18 K, x1 = 0.4 | 1.38134 | 22.91
298.18 K, x1 = 0.45 | 1.38291 | 22.96
298.18 K, x1 = 0.5 | 1.38434 | 23
298.18 K, x1 = 0.55 | 1.38564 | 23.05
298.18 K, x1 = 0.6 | 1.38684 | 23.1
298.18 K, x1 = 0.65 | 1.38795 | 23.15
298.18 K, x1 = 0.7 | 1.38897 | 23.2
298.18 K, x1 = 0.75 | 1.38993 | 23.26
298.18 K, x1 = 0.8 | 1.39083 | 23.31
298.18 K, x1 = 0.85 | 1.39169 | 23.35
298.18 K, x1 = 0.9 | 1.3925 | 23.4
298.18 K, x1 = 0.95 | 1.39328 | 23.45
298.18 K, x1 = 1 | 1.39401 | 23.5
308.15 K, x1 = 0.05 | 1.35942 | 21.57
308.15 K, x1 = 0.1 | 1.36295 | 21.64
308.15 K, x1 = 0.15 | 1.36603 | 21.7
308.15 K, x1 = 0.2 | 1.36872 | 21.76
308.15 K, x1 = 0.25 | 1.3711 | 21.81
308.15 K, x1 = 0.3 | 1.37321 | 21.86
308.15 K, x1 = 0.35 | 1.3751 | 21.91
308.15 K, x1 = 0.4 | 1.3768 | 21.96
308.15 K, x1 = 0.45 | 1.37834 | 22
308.15 K, x1 = 0.5 | 1.37974 | –
308.15 K, x1 = 0.55 | 1.38102 | 22.04
308.15 K, x1 = 0.6 | 1.3822 | 22.08
308.15 K, x1 = 0.65 | 1.38329 | 22.13
308.15 K, x1 = 0.7 | 1.3843 | 22.17
308.15 K, x1 = 0.75 | 1.38524 | 22.22
308.15 K, x1 = 0.8 | 1.38613 | 22.27
308.15 K, x1 = 0.85 | 1.38698 | 22.31
308.15 K, x1 = 0.9 | 1.38779 | 22.36
308.15 K, x1 = 0.95 | 1.38857 | 22.41
308.15 K, x1 = 1 | 1.38931 | 22.45
318.15 K, x1 = 0.05 | 1.35545 | 20.65
318.15 K, x1 = 0.1 | 1.35888 | 20.72
318.15 K, x1 = 0.15 | 1.36186 | 20.78
318.15 K, x1 = 0.2 | 1.36447 | 20.83
318.15 K, x1 = 0.25 | 1.36679 | 20.88
318.15 K, x1 = 0.3 | 1.36884 | 20.94
318.15 K, x1 = 0.35 | 1.37068 | 20.99
318.15 K, x1 = 0.4 | 1.37233 | 21.03
318.15 K, x1 = 0.45 | 1.37383 | 21.08
318.15 K, x1 = 0.5 | 1.37519 | 21.12
318.15 K, x1 = 0.55 | 1.37644 | 21.17
318.15 K, x1 = 0.6 | 1.37759 | 21.21
318.15 K, x1 = 0.65 | 1.37865 | 21.26
318.15 K, x1 = 0.7 | 1.37964 | 21.3
318.15 K, x1 = 0.75 | 1.38056 | 21.35
318.15 K, x1 = 0.8 | 1.38143 | 21.4
318.15 K, x1 = 0.85 | 1.38226 | 21.45
318.15 K, x1 = 0.9 | 1.38306 | 21.5
318.15 K, x1 = 0.95 | 1.38384 | 21.55
318.15 K, x1 = 1 | 1.38458 | 21.6
